According to patent publication US9187471B2, “Pyrido [4,3-b] indole and pyrido [3,4-b] indole derivatives and methods of use” (Medivation Technologies, Inc., priority 2010, dated 2015):

Legend:
[1] = molecular target: T1, human recombinant dopamine D2L receptor (Homo sapiens, UniProt P14416); assay: Dopamine D2L radioligand binding ([3H]Spiperone); conditions: 0.16 nM [3H]Spiperone; for inhibition at 1 µM: read-out: Dopamine D2L (1 μM), percent inhibition of specific binding, compound at 1 μM; for inhibition at 0.1 µM: read-out: Dopamine D2L (0.1 μM), percent inhibition of specific binding, compound at 0.1 μM
T1 construct: expressed in transfected cells; host or cells: CHO
T1 sequence (P14416 whole entry): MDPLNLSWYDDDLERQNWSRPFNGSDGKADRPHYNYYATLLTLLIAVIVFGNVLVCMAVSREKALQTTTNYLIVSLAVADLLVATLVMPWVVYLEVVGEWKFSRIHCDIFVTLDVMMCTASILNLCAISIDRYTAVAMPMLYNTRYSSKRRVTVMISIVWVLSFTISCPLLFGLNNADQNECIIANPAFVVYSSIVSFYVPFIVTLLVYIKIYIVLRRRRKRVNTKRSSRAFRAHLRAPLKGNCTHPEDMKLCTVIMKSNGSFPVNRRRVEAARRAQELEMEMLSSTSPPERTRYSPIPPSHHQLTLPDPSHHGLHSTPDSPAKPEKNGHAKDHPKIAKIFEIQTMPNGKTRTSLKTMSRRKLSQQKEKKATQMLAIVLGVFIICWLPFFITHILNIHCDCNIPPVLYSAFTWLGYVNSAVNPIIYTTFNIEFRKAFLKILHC
Protocol: Non-specific binding was estimated in the presence of 10 μM Haloperidol. Receptor proteins were filtered and washed, the filters were then counted to determine [^3H]Spiperone specifically bound.

[2] = molecular target: T2, human recombinant serotonin (5-Hydroxytryptamine) 5-HT2A receptor (Homo sapiens, UniProt P28223); assay: Serotonin 5-HT2A radioligand binding ([3H]Ketanserin); conditions: compound at 0.1 μM; read-out: Inhibition of ligand binding, Serotonin 5-HT2A (percent inhibition of specific binding)
T2 construct: expressed in transfected cells; host or cells: CHO-K1
T2 sequence (P28223 whole entry): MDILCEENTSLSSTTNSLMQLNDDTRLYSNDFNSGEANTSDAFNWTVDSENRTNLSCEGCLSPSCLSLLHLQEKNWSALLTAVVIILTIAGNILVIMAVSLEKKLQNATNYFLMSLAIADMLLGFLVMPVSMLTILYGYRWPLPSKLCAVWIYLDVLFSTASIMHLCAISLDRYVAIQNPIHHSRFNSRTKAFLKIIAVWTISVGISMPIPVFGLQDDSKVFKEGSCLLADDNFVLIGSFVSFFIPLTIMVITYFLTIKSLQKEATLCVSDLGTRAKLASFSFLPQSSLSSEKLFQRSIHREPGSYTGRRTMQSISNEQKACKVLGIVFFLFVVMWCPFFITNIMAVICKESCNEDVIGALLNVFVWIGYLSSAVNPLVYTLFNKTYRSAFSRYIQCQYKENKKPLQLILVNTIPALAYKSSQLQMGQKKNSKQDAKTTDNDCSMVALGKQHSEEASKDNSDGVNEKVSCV
Protocol: Compounds of the invention were incubated with 0.5 nM [^3H]Ketanserin for 60 min at 25° C. Non-specific binding was estimated in the presence of 1 μM Mianserin. Receptor proteins were filtered and washed, the filters were then counted to determine [^3H]Ketanserin specifically bound.

[3] = molecular target: T3, human recombinant serotonin (5-Hydroxytryptamine) 5-HT2C receptor (Homo sapiens, UniProt P28335); assay: Serotonin 5-HT2C radioligand binding ([3H]Mesulergine); conditions: compound at 0.1 μM; read-out: Inhibition of ligand binding, Serotonin 5-HT2C (percent inhibition of specific binding)
T3 construct: expressed in transfected cells; host or cells: CHO-K1
T3 sequence (P28335 33-458): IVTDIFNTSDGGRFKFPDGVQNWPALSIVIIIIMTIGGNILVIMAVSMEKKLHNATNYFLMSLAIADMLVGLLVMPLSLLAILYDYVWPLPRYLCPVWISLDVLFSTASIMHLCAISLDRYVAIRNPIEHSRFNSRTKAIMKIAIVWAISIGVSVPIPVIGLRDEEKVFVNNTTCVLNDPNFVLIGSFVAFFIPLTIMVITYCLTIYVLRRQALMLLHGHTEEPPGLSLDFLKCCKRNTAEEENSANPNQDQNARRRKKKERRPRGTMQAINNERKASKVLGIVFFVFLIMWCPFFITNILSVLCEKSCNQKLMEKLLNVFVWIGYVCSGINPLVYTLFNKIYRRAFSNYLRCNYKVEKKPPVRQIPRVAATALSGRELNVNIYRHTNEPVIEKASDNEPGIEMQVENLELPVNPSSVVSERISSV
Protocol: Compounds of the invention were incubated with 1 nM [^3H]Mesulergine for 60 min at 25° C. Non-specific binding was estimated in the presence of 1 μM Mianserin. Receptor proteins were filtered and washed, the filters were then counted to determine [^3H]Mesulergine specifically bound.

[4] = molecular target: T4, human recombinant serotonin (5-Hydroxytryptamine) 5-HT7 receptor (Homo sapiens, UniProt P34969); assay: Serotonin 5-HT7 radioligand binding ([3H]LSD); conditions: compound at 0.1 μM; read-out: Inhibition of ligand binding, Serotonin 5-HT7 (percent inhibition of specific binding)
T4 construct: expressed in transfected cells; host or cells: CHO
T4 sequence (P34969 whole entry): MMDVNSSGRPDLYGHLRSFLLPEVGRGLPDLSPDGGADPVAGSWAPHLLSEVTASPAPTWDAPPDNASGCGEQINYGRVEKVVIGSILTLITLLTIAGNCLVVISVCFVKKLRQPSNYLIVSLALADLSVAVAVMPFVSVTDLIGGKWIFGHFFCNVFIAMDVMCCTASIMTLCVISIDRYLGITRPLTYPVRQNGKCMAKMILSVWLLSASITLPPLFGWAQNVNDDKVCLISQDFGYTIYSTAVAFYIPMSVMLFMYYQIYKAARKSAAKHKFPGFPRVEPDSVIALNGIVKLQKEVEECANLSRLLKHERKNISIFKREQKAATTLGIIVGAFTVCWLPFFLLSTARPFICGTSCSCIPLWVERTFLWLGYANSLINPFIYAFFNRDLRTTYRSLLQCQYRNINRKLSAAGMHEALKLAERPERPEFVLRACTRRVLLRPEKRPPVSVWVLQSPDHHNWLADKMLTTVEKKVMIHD
Protocol: Lysergic acid diethylamide (LSD) for 120 min. at 25° C. […] Receptor proteins were filtered and washed, the filters were then counted to determine [^3H]LSD specifically bound.

Cc1ccc2c(c1)c1c(n2-c2ccc(-c3cncc4ccccc34)cn2)CCN(C)C1 [Compound No. 135, 5-(5-(isoquinolin-4-yl)pyridin-2-yl)-2,8-dimethyl-2,3,4,5-tetrahydro-1H-pyrido[4,3-b]indole]
inhibition at 1 µM [1]: 12% | inhibition at 0.1 µM [2]: 72% | inhibition at 0.1 µM [3]: 88% | inhibition at 0.1 µM [4]: 22%

Cc1ccc2c(c1)c1c(n2-c2ccccc2-c2ccc(C)nc2)CCN(C)C1 [Compound 59, 2,8-dimethyl-5-(2-(6-methylpyridin-3-yl)phenyl)-2,3,4,5-tetrahydro-1H-pyrido[4,3-b]indole]
inhibition at 1 µM [1]: 13% | inhibition at 0.1 µM [2]: 47% | inhibition at 0.1 µM [3]: 46% | inhibition at 0.1 µM [4]: 48%

Cc1csc(-c2cccc(-n3c4c(c5cc(C)ccc53)CN(C)CC4)c2)c1 [Compound No. 63, 2,8-dimethyl-5-(3-(4-methylthiophen-2-yl)phenyl)-2,3,4,5-tetrahydro-1H-pyrido[4,3-b]indole]
inhibition at 1 µM [1]: 19% | inhibition at 0.1 µM [2]: 101% | inhibition at 0.1 µM [3]: 77% | inhibition at 0.1 µM [4]: 25%

Cc1ccc2c(c1)c1c(n2-c2ccc(-c3ccc(C)nc3)cn2)CCN(C)C1 [Compound No. 156, 2,8-dimethyl-5-(6′-methyl-3,3′-bipyridin-6-yl)-2,3,4,5-tetrahydro-1H-pyrido[4,3-b]indole]
inhibition at 0.1 µM [1]: -7% | inhibition at 0.1 µM [2]: 90% | inhibition at 0.1 µM [3]: 96% | inhibition at 0.1 µM [4]: 28%

Cc1ccc2c(c1)c1c(n2-c2ccccc2-c2ccc(F)nc2)CCN(C)C1 [Compound No. 84, 5-(2-(6-fluoropyridin-3-yl)phenyl)-2,8-dimethyl-2,3,4,5-tetrahydro-1H-pyrido[4,3-b]indole]
inhibition at 1 µM [1]: 8% | inhibition at 0.1 µM [2]: 89% | inhibition at 0.1 µM [3]: 75% | inhibition at 0.1 µM [4]: 25%

Cc1ccc2c(c1)c1c(n2-c2cscc2-c2ccnn2C)CCN(C)C1 [Compound No. 150]
inhibition at 0.1 µM [1]: 5% | inhibition at 0.1 µM [2]: 53% | inhibition at 0.1 µM [3]: 64% | inhibition at 0.1 µM [4]: 88%

Cc1ccc2c(c1)c1c(n2-c2ccc3c(c2)CCN(C=O)C3)CCN(C)C1 [Compound No. 77, 6-(2,8-dimethyl-1,2,3,4-tetrahydro-pyrido[4,3-b]indol-5-yl)-3,4-dihydro-1H-isoquinoline-2-carbaldehyde]
inhibition at 1 µM [1]: 14% | inhibition at 0.1 µM [2]: 36% | inhibition at 0.1 µM [3]: 51% | inhibition at 0.1 µM [4]: 35%

Cc1ccc2c(c1)c1c(n2-c2cscc2C(=O)N(C)C)CCN(C)C1 [Compound No. 152]
inhibition at 0.1 µM [1]: 4% | inhibition at 0.1 µM [2]: 31% | inhibition at 0.1 µM [3]: 22% | inhibition at 0.1 µM [4]: 15%

Cc1ccc2c(c1)c1c(n2-c2ccc(-c3c(C)noc3C)cn2)CCN(C)C1 [Compound No. 137, 4-(6-(2,8-dimethyl-3,4-dihydro-1H-pyrido[4,3-b]indol-5(2H)-yl)pyridin-3-yl)-3,5-dimethylisoxazole]
inhibition at 1 µM [1]: 6% | inhibition at 0.1 µM [2]: 62% | inhibition at 0.1 µM [3]: 75% | inhibition at 0.1 µM [4]: 40%

CC(=O)Nc1ccc(-c2ccc(-n3c4c(c5cc(C)ccc53)CN(C)CC4)nc2)cn1 [Compound No. 139, N-(6′-(2,8-dimethyl-3,4-dihydro-1H-pyrido[4,3-b]indol-5(2H)-yl)-3,3′-bipyridin-6-yl)acetamide]
inhibition at 1 µM [1]: 16% | inhibition at 0.1 µM [2]: 64% | inhibition at 0.1 µM [3]: 65% | inhibition at 0.1 µM [4]: 13%

Cc1ccc2c(c1)c1c(n2-c2cccc(-c3ccc4c(ccn4C)c3)c2)CCN(C)C1 [Compound 53, 2,8-dimethyl-5-(3-(1-methyl-1H-indol-5-yl)phenyl)-2,3,4,5-tetrahydro-1H-pyrido[4,3-b]indole]
inhibition at 1 µM [1]: 13% | inhibition at 0.1 µM [2]: 89% | inhibition at 0.1 µM [3]: 47% | inhibition at 0.1 µM [4]: 4%

Cc1ccc2c(c1)c1c(n2-c2cscc2-c2cncc3ccccc23)CCN(C)C1 [Compound 34]
inhibition at 1 µM [1]: 31% | inhibition at 0.1 µM [2]: 57% | inhibition at 0.1 µM [3]: 54% | inhibition at 0.1 µM [4]: 43%

Cc1ccc2c(c1)c1c(n2-c2cccc(-c3cn[nH]c3)c2)CCN(C)C1 [Compound No. 70, 5-(3-(1H-pyrazol-4-yl)phenyl)-2,8-dimethyl-2,3,4,5-tetrahydro-1H-pyrido[4,3-b]indole]
inhibition at 1 µM [1]: 15% | inhibition at 0.1 µM [2]: 98% | inhibition at 0.1 µM [3]: 81% | inhibition at 0.1 µM [4]: 50%

CNC(=O)c1ccc(-c2ccccc2-n2c3c(c4cc(C)ccc42)CN(C)CC3)cc1 [Compound No. 72, 2′-(2,8-dimethyl-3,4-dihydro-1H-pyrido[4,3-b]indol-5(2H)-yl)-N-methylbiphenyl-4-carboxamide]
inhibition at 1 µM [1]: 16% | inhibition at 0.1 µM [2]: 35% | inhibition at 0.1 µM [3]: 16% | inhibition at 0.1 µM [4]: 30%

Cc1cc(C)c2c(c1)c1c(n2-c2ccc3ncccc3c2)CCN(C)C1 [Compound 48]
inhibition at 1 µM [1]: 41% | inhibition at 0.1 µM [2]: 13% | inhibition at 0.1 µM [3]: 47% | inhibition at 0.1 µM [4]: 23%

Cc1ccc2c(c1)c1c(n2-c2ccccc2-c2cnc(N(C)C)nc2)CCN(C)C1 [Compound 31]
inhibition at 1 µM [1]: 12% | inhibition at 0.1 µM [2]: 27% | inhibition at 0.1 µM [3]: 15% | inhibition at 0.1 µM [4]: -2%

Cc1ccc2c(c1)c1c(n2-c2ccccc2-c2ccc(C)s2)CCN(C)C1 [Compound No. 81, 2,8-dimethyl-5-(2-(5-methylthiophen-2-yl)phenyl)-2,3,4,5-tetrahydro-1H-pyrido[4,3-b]indole]
inhibition at 1 µM [1]: 19% | inhibition at 0.1 µM [2]: 87% | inhibition at 0.1 µM [3]: 89% | inhibition at 0.1 µM [4]: 72%

Cc1ccc2c(c1)c1c(n2-c2ccc(-c3ccnn3C)cn2)CCN(C)C1 [Compound No. 146, 2,8-dimethyl-5-(5-(1-methyl-1H-pyrazol-5-yl)pyridin-2-yl)-2,3,4,5-tetrahydro-1H-pyrido[4,3-b]indole]
inhibition at 1 µM [1]: 5% | inhibition at 0.1 µM [2]: 57% | inhibition at 0.1 µM [3]: 30% | inhibition at 0.1 µM [4]: 16%

CC(=O)Nc1ccc(-c2cscc2-n2c3c(c4cc(C)ccc42)CN(C)CC3)cn1 [Compound 56]
inhibition at 1 µM [1]: 10% | inhibition at 0.1 µM [2]: 31% | inhibition at 0.1 µM [3]: 38% | inhibition at 0.1 µM [4]: 70%

Cc1ccc2c(c1)c1c(n2-c2cccc(-c3ccc(F)nc3)c2)CCN(C)C1 [Compound 44, 5-(3-(6-fluoropyridin-3-yl)phenyl)-2,8-dimethyl-2,3,4,5-tetrahydro-1H-pyrido[4,3-b]indole]
inhibition at 1 µM [1]: 23% | inhibition at 0.1 µM [2]: 103% | inhibition at 0.1 µM [3]: 83% | inhibition at 0.1 µM [4]: 40%

CC(=O)Nc1ccc(-c2ccccc2-n2c3c(c4cc(C)ccc42)CN(C)CC3)cn1 [Compound No. 83, N-(5-(2-(2,8-dimethyl-3,4-dihydro-1H-pyrido[4,3-b]indol-5(2H)-yl)phenyl)pyridin-2-yl)acetamide]
inhibition at 1 µM [1]: 15% | inhibition at 0.1 µM [2]: 41% | inhibition at 0.1 µM [3]: 15% | inhibition at 0.1 µM [4]: 15%

Cc1ccc2c(c1)c1c(n2-c2ccc3cnccc3c2)CCN(C)C1 [Compound 38]
inhibition at 1 µM [1]: 53% | inhibition at 0.1 µM [2]: 84% | inhibition at 0.1 µM [3]: 88% | inhibition at 0.1 µM [4]: 33%

Cc1ccc2c(c1)c1c(n2-c2cccc(-c3ccc(S(C)(=O)=O)cc3)c2)CCN(C)C1 [Compound No. 131, 2,8-dimethyl-5-(4′-(methylsulfonyl)biphenyl-3-yl)-2,3,4,5-tetrahydro-1H-pyrido[4,3-b]indole]
inhibition at 1 µM [1]: 4% | inhibition at 0.1 µM [2]: 74% | inhibition at 0.1 µM [3]: -6% | inhibition at 0.1 µM [4]: 2%

CNC(=O)c1cc(-n2c3c(c4cc(C)ccc42)CN(C)CC3)cs1 [Compound No. 78]
inhibition at 1 µM [1]: 1% | inhibition at 0.1 µM [2]: 59% | inhibition at 0.1 µM [3]: 35% | inhibition at 0.1 µM [4]: 22%

Cc1ccc2c(c1)c1c(n2-c2ccc(-c3cnn(C)c3)cn2)CCN(C)C1 [Compound No. 134, 2,8-dimethyl-5-(5-(1-methyl-1H-pyrazol-4-yl)pyridin-2-yl)-2,3,4,5-tetrahydro-1H-pyrido[4,3-b]indole]
inhibition at 1 µM [1]: 1% | inhibition at 0.1 µM [2]: 88% | inhibition at 0.1 µM [3]: 96% | inhibition at 0.1 µM [4]: 4%

CNC(=O)c1ccc(-c2cscc2-n2c3c(c4cc(C)ccc42)CN(C)CC3)cc1 [Compound No. 155]
inhibition at 0.1 µM [1]: 1% | inhibition at 0.1 µM [2]: 27% | inhibition at 0.1 µM [3]: 31% | inhibition at 0.1 µM [4]: 94%
